In this assay the target is JAK2 (JH1 domain-catalytic, Y1007F, Y1008F) kinase (Homo sapiens (Human), UniProt O60674, Y1007F/Y1008F). Nature of the assay: JAK2 JH1 Domain Binding Assay. As to conditions: qPCR readout. How it is done: JAK2 (JH1 domain-catalytic, Y1007F, Y1008F) kinase was expressed as N-terminal fusion to the DNA binding domain of NFkB in transiently transfected HEK293 cells and subsequently tagged with DNA for qPCR detection. Streptavidin-coated magnetic beads were treated with biotinylated small molecule ligands for 30 minutes at room temperature to generate affinity resins for kinase assays. The liganded beads were blocked with excess biotin and washed with blocking buffer (SeaBlock (Pierce), 1% BSA, 0.05% Tween 20, 1 mmol/L DTT) to remove unbound ligand and to reduce nonspecific phage binding. Binding reactions were assembled by combining kinases, liganded affinity beads, and test compounds in 1× binding buffer (1× PBS, 0.05% Tween 20, 0.1% BSA, 1 mmol/L DTT). Test compound was prepared as 111× stocks in 100% DMSO and directly diluted into the assay wells. All reactions were performed in polypropylene 384-well plates in a final volume of 0.02 mL. The assay plates were incubated at room temperature with shaking for 1 hour and the affinity beads were washed with wash buffer (1× PBS, 0.05% Tween 20). The beads were then re-suspended in elution buffer (1× PBS, 0.05% Tween 20, 0.5 μmol/L non-biotinylated affinity ligand) and incubated at room temperature with shaking for 30 minutes. The kinase concentration in the eluate was measured by qPCR.
JAK2 (JH1 domain-catalytic, Y1007F, Y1008F) kinase, sequence (O60674 849-1124 Y1007F/Y1008F): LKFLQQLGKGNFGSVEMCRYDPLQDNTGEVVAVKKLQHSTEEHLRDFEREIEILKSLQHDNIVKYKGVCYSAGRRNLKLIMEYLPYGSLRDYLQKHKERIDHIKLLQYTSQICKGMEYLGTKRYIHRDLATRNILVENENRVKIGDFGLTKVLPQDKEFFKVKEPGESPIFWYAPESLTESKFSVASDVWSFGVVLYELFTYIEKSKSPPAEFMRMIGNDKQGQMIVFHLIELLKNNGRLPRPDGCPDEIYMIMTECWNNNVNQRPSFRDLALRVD
(Real-time PCR tracks product formation cycle by cycle.)

What is called Kd is a measure of binding affinity in units of concentration. Low values mean tighter binding, high ones weaker binding.

`CN(C(=O)Nc1cc(C(F)(F)F)cn(C)c1=O)[C@@H]1CC=C(c2cnc3[nH]cc(N4CCOCC4)c3n2)CC1.CN(C(=O)Nc1cc(C(F)(F)F)cn(C)c1=O)[C@H]1CC=C(c2cnc3[nH]cc(N4CCOCC4)c3n2)CC1` (mixture of isomers) [Example I-165-a, (S)-1-methyl-3-(1-methyl-2-oxo-5-(trifluoromethyl)-1,2-dihydropyridin-3-yl)-1-(4-(7-morpholino-5H-pyrrolo[2,3-b]pyrazin-2-yl)cyclohex-3-en-1-yl)urea and (R)-1-methyl-3-(1-methyl-2-oxo-5-(trifluoromethyl)-1,2-dihydropyridin-3-yl)-1-(4-(7-morpholino-5H-pyrrolo[2,3-b]pyrazin-2-yl)cyclohex-3-en-1-yl)urea] returned a Kd of under 10 nM. `CN(C(=O)Nc1cc(C(F)(F)F)cn(C)c1=O)C1CC2(C1)CN(c1cnc3[nH]ncc3n1)C2` [Example I-72, 1-(2-(1H-pyrazolo[3,4-b]pyrazin-5-yl)-2-azaspiro[3.3]heptan-6-yl)-1-methyl-3-(1-methyl-2-oxo-5-(trifluoromethyl)-1,2-dihydropyridin-3-yl)urea] returned a Kd of under 10 nM. In turn, `CNc1c[nH]c2ncc([C@H]3CC[C@@H](N(C)C(=O)Nc4cc(C(F)(F)F)cn(C)c4=O)CC3)nc12` [Example I-145, 1-methyl-3-(1-methyl-2-oxo-5-(trifluoromethyl)-1,2-dihydropyridin-3-yl)-1-((1s,4s)-4-(7-(methylamino)-5H-pyrrolo[2,3-b]pyrazin-2-yl)cyclohexyl)urea] displayed a Kd of under 10 nM. As for `C[C@H]1CN(c2cnc3[nH]ncc3c2)CC[C@H]1N(C)C(=O)Nc1cc(C(F)(F)F)cn(C)c1=O` [Example I-70-b, 1-methyl-1-((3S,4R)-3-methyl-1-(1H-pyrazolo[3,4-b]pyridin-5-yl)piperidin-4-yl)-3-(1-methyl-2-oxo-5-(trifluoromethyl)-1,2-dihydropyridin-3-yl)urea], the equilibrium dissociation constant (Kd) was under 10 nM. For the compound `CN(C(=O)Nc1cc(C(F)(F)F)cn(C)c1=O)C1CC2(C1)CN(c1cnc3[nH]ccc3n1)C2` [Example I-55, 1-(2-(5H-pyrrolo[2,3-b]pyrazin-2-yl)-2-azaspiro[3.3]heptan-6-yl)-1-methyl-3-(1-methyl-2-oxo-5-(trifluoromethyl)-1,2-dihydropyridin-3-yl)urea], the Kd was under 10 nM. Compound `Cn1cc(C(F)(F)F)cc(NC(=O)N2CC=CC23CCN(c2cnc4[nH]cc(C#N)c4n2)CC3)c1=O` [Example I-98, 8-(7-cyano-5H-pyrrolo[2,3-b]pyrazin-2-yl)-N-(1-methyl-2-oxo-5-(trifluoromethyl)-1,2-dihydropyridin-3-yl)-1,8-diazaspiro[4.5]dec-3-ene-1l-carboxamide] registered a dissociation constant Kd of 10 to 50 nM. In turn, `CN(C(=O)Nc1cc(C(F)(F)F)cn(C)c1=O)C1CCN(c2cnc3[nH]n(C)c(=O)c3c2)CC1` [Example I-86, 1-methyl-3-(1-methyl-2-oxo-5-(trifluoromethyl)-1,2-dihydropyridin-3-yl)-1-(1-(2-methyl-3-oxo-2,3-dihydro-1H-pyrazolo[3,4-b]pyridin-5-yl)piperidin-4-yl)urea] registered a Kd of under 10 nM. Compound `COc1n[nH]c2ncc(N3CC[C@@H](N(C)C(=O)Nc4cc(C(F)(F)F)cn(C)c4=O)[C@@H](F)C3)cc12` [Example I-87-a, 1-((3S,4R)-3-fluoro-1-(3-methoxy-1H-pyrazolo[3,4-b]pyridin-5-yl)piperidin-4-yl)-1-methyl-3-(1-methyl-2-oxo-5-(trifluoromethyl)-1,2-dihydropyridin-3-yl)urea] returned a dissociation constant Kd of under 10 nM. `CO[C@@H]1CN(c2cnc3[nH]c(C)cc3n2)CC[C@H]1N(C)C(=O)Nc1cc(C(F)(F)F)cn(C)c1=O` [Example I-117-a, 1-((3R,4R)-3-methoxy-1-(6-methyl-5H-pyrrolo[2,3-b]pyrazin-2-yl)piperidin-4-yl)-1-methyl-3-(1-methyl-2-oxo-5-(trifluoromethyl)-1,2-dihydropyridin-3-yl)urea] returned a Kd of 50 to 1000 nM. Compound `CN(C(=O)Nc1cc(C(F)(F)F)cn(C)c1=O)C1CCN(c2cnn3cc(O[C@H]4CC[C@@H]4O)ncc23)CC1` [Example I-129-b, 1-(1-(6-((1S,2S)-2-hydroxycyclobutoxy)pyrazolo[1,5-a]pyrazin-3-yl)piperidin-4-yl)-1-methyl-3-(1-methyl-2-oxo-5-(trifluoromethyl)-1,2-dihydropyridin-3-yl)urea] displayed a Kd of under 10 nM. Compound `CN(C(=O)Nc1cc(C(F)(F)F)cn(C)c1=O)[C@H]1CCN(c2cnc(NC(=O)C3CC3)cn2)CC1(F)F` (single isomer, unassigned) [Example I-34-b] displayed a Kd of under 10 nM. Compound `CC(=O)Nc1cnc(N2CCC(CC(=O)Nc3cccc(C(F)(F)F)c3)CC2)cn1` [Example I-6, 2-(1-(5-acetamidopyrazin-2-yl)piperidin-4-yl)-N-(3-(trifluoromethyl)phenyl)acetamide] displayed a Kd of 50 to 1000 nM. On to `CO[C@H]1C[C@@H](n2[nH]c3ncc(N4CCC(N(C)C(=O)Nc5cc(C(F)(F)F)cn(C)c5=O)CC4)cc3c2=O)C1` [Example I-130, 1-(1-(2-((1s,3s)-3-methoxycyclobutyl)-3-oxo-2,3-dihydro-1H-pyrazolo[3,4-b]pyridin-5-yl)piperidin-4-yl)-1-methyl-3-(1-methyl-2-oxo-5-(trifluoromethyl)-1,2-dihydropyridin-3-yl)urea], for which the Kd fell in the range of 50 to 1000 nM.

Take `COc1c[nH]c2ncc(N3CC[C@H](N(C)C(=O)Nc4cc(C(F)(F)F)cn(C)c4=O)[C@@H](F)C3)nc12` [Example I-149, 1-((3S,4S)-3-fluoro-1-(7-methoxy-5H-pyrrolo[2,3-b]pyrazin-2-yl)piperidin-4-yl)-1-methyl-3-(1-methyl-2-oxo-5-(trifluoromethyl)-1,2-dihydropyridin-3-yl)urea]: the Kd is under 10 nM. On to `COCCOc1n[nH]c2ncc(N3CC[C@@H](N(C)C(=O)Nc4cc(C(F)(F)F)cn(C)c4=O)C[C@H]3C)cc12` [Example I-132-b, 1-((2R,4R)-1-(3-(2-methoxyethoxy)-1H-pyrazolo[3,4-b]pyridin-5-yl)-2-methylpiperidin-4-yl)-1-methyl-3-(1-methyl-2-oxo-5-(trifluoromethyl)-1,2-dihydropyridin-3-yl)urea], for which the Kd was in the range of 10 to 50 nM. The result for `CN(C(=O)Nc1cc(C(F)(F)F)cn(C)c1=O)[C@@H]1CCN(c2cnc3[nH]cc(N4CCOCC4)c3n2)CC1(F)F` (single isomer, unassigned) [Example I-155-a] reads 10 to 50 nM; that for `COc1n[nH]c2ncc(N3CCC(N(C)C(=O)Nc4cc(C5CC5)cn([C@H]5CCCOC5)c4=O)CC3)cc12` [Example I-136-a, (S)-3-(5-cyclopropyl-2-oxo-1-(tetrahydro-2H-pyran-3-yl)-1,2-dihydropyridin-3-yl)-1-(1-(3-methoxy-1H-pyrazolo[3,4-b]pyridin-5-yl)piperidin-4-yl)-1-methylurea], under 10 nM. With “1-(1-(3-((1R,2R)-2-hydroxycyclobutoxy)-1H-pyrazolo[3,4-b]pyridin-5-yl)piperidin-4-yl)-1-methyl-3-(1-methyl-2-oxo-5-(trifluoromethyl)-1,2-dihydropyridin-3-yl)urea and 1-(1-(3-((1S,2S)-2-hydroxycyclobutoxy)-1H-pyrazolo[3,4-b]pyridin-5-yl)piperidin-4-yl)-1-methyl-3-(1-methyl-2-oxo-5-(trifluoromethyl)-1,2-dihydropyridin-3-yl)urea [Example I-184-b]”, the Kd was 1000 to 5000 nM. In the case of `Cc1c[nH]c2ncc(N3CCC(N(C)C(=O)Nc4cc(C(F)(F)F)cn(C)c4=O)C(F)(F)C3)nc12` (single isomer, unassigned) [Example I-33-b, (S)- or (R)-1-(3,3-difluoro-1-(7-methyl-5H-pyrrolo[2,3-b]pyrazin-2-yl)piperidin-4-yl)-1-methyl-3-(1-methyl-2-oxo-5-(trifluoromethyl)-1,2-dihydropyridin-3-yl)urea], the Kd is under 10 nM. `COCc1cc2nc(N3CC[C@H]4[C@H](C3)OCCN4C(=O)Nc3cc(C(F)(F)F)cn(C)c3=O)cnc2[nH]1` [Example I-164-a, (4aS,8aS)-6-(6-(methoxymethyl)-5H-pyrrolo[2,3-b]pyrazin-2-yl)-N-(1-methyl-2-oxo-5-(trifluoromethyl)-1,2-dihydropyridin-3-yl)octahydro-1/-pyrido[3,4-b][1,4]oxazine-1-carboxamide] showed a Kd of 50 to 1000 nM. Compound `CN(C(=O)Nc1cc(C(F)(F)F)cn(C)c1=O)C1(C)CCN(c2cnc3[nH]cc(F)c3n2)CC1` [Example I-56, 1-(1-(7-fluoro-5H-pyrrolo[2,3-b]pyrazin-2-yl)-4-methylpiperidin-4-yl)-1-methyl-3-(1-methyl-2-oxo-5-(trifluoromethyl)-1,2-dihydropyridin-3-yl)urea] returned a Kd of 10 to 50 nM. As to `Cn1cc(C(F)(F)F)cc(NC(=O)N2CCO[C@H]3CN(c4cnc(NC(=O)C5CC5)cn4)CC[C@@H]32)c1=O` [Example I-148-a, ((4aS,8aS)-6-(5-(cyclopropanecarboxamido)pyrazin-2-yl)-N-(1-methyl-2-oxo-5-(trifluoromethyl)-1,2-dihydropyridin-3-yl)octahydro-1H-pyrido[3,4-b][1,4]oxazine-1-carboxamide and (4aR,8aR)-6-(5-(cyclopropanecarboxamido)pyrazin-2-yl)-N-(1-methyl-2-oxo-5-(trifluoromethyl)-1,2-dihydropyridin-3-yl)octahydro-1H-pyrido[3,4-b][1,4]oxazine-1-carboxamide], the Kd was under 10 nM.

These data come from US20240116892A1, “HETEROCYCLIC AMIDE AND UREA COMPOUNDS AS JAK2 INHIBITORS” (Ajax Therapeutics, Inc., priority 2022, published 2024).
